Measurements taken from ChEMBL document CHEMBL1909046, “DrugMatrix in vitro pharmacology data”.
pIC50, pKi: −log10 of the molar value.

Experiments:
[1] = biological target: Vascular endothelial growth factor receptor 1 (Homo sapiens, UniProt P17948); type: cell-based; conditions: huvec; further: in other assays of this panel Not Active means under 50% inhibition at 10 µM
[2] = biological target: Nitric oxide synthase 1 (Rattus norvegicus, UniProt P29476); type: tissue-based, Cerebellum; further: in other assays of this panel Not Active means under 50% inhibition at 10 µM
[3] = biological target: T1, C-C chemokine receptor type 4 (Homo sapiens, UniProt P51679); type: cell membranes, Membrane; conditions: chem-1; further: in other assays of this panel Not Active means under 50% inhibition at 10 µM
T1 sequence (P51679 whole entry): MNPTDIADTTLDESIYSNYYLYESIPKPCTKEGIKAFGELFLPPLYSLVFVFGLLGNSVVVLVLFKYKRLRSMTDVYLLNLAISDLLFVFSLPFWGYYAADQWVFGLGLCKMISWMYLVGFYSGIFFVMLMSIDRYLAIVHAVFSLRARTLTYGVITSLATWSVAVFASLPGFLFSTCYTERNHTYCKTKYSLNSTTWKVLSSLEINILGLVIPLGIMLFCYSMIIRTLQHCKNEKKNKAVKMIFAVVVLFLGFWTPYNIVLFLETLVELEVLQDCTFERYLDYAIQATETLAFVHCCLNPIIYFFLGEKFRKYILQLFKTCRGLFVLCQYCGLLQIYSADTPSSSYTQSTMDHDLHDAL

[4] = DRUGMATRIX: Phosphodiesterase PDE3 enzyme inhibition (substrate: [3H]cAMP + cAMP); type: tissue-based, Homo sapiens; conditions: platelet; Not Active = under 50% inhibition at 10 µM
[5] = biological target: 5-hydroxytryptamine receptor 4 (Cavia porcellus, UniProt O70528); type: cell membranes, Dunkin-Hartley, Striatum, Membrane; conditions: for pIC50: read-out: IC50; for pKi: read-out: Ki; on all read-outs here: in other assays of this panel Not Active means under 50% inhibition at 10 µM
[6] = DRUGMATRIX: Calcium Channel Type L, Benzothiazepine radioligand binding (ligand: [3H] Diltiazem); type: cell membranes, Rattus norvegicus, Wistar, Brain, Membrane; conditions: Not Active = under 50% inhibition at 10 µM
[7] = DRUGMATRIX: Glutamate, NMDA, Phencyclidine radioligand binding (ligand: [3H] TCP); type: cell membranes, Rattus norvegicus, Wistar, Cerebral cortex, Membrane; conditions: Not Active = under 50% inhibition at 10 µM

Sequence of Vascular endothelial growth factor receptor 1 (P17948 whole entry): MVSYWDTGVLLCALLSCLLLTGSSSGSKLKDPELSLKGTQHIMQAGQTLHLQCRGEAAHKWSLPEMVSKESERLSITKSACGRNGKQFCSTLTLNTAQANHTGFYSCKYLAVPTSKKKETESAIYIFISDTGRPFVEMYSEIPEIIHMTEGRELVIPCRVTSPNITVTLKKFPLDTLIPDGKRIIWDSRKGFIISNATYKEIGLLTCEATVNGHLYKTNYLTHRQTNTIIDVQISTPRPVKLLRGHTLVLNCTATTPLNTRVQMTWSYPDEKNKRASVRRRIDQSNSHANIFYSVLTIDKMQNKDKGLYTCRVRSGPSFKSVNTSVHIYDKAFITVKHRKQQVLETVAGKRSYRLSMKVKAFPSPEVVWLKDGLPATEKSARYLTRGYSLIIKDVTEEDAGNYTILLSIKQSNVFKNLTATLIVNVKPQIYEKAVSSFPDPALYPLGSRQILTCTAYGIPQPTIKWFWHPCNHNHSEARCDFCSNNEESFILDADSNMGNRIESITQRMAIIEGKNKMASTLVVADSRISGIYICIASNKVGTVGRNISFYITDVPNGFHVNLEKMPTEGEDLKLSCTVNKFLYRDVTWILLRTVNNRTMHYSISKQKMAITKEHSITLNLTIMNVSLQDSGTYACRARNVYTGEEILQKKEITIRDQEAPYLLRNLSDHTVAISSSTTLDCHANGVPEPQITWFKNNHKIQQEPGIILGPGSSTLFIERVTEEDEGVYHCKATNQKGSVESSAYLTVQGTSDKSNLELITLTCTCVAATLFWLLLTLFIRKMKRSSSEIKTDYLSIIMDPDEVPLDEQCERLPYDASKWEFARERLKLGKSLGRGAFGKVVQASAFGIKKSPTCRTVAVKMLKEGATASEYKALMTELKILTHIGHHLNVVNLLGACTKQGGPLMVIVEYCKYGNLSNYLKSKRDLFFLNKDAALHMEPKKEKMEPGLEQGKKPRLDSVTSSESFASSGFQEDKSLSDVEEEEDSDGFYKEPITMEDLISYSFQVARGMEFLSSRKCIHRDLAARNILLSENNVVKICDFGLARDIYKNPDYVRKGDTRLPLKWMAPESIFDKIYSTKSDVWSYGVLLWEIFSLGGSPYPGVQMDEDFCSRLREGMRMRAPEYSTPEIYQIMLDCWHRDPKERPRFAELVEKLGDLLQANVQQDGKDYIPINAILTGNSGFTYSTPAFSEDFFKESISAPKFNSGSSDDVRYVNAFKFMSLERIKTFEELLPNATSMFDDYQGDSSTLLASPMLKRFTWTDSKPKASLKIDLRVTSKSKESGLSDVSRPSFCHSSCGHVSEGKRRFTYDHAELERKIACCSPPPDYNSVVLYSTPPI
Sequence of Nitric oxide synthase 1 (P29476 whole entry): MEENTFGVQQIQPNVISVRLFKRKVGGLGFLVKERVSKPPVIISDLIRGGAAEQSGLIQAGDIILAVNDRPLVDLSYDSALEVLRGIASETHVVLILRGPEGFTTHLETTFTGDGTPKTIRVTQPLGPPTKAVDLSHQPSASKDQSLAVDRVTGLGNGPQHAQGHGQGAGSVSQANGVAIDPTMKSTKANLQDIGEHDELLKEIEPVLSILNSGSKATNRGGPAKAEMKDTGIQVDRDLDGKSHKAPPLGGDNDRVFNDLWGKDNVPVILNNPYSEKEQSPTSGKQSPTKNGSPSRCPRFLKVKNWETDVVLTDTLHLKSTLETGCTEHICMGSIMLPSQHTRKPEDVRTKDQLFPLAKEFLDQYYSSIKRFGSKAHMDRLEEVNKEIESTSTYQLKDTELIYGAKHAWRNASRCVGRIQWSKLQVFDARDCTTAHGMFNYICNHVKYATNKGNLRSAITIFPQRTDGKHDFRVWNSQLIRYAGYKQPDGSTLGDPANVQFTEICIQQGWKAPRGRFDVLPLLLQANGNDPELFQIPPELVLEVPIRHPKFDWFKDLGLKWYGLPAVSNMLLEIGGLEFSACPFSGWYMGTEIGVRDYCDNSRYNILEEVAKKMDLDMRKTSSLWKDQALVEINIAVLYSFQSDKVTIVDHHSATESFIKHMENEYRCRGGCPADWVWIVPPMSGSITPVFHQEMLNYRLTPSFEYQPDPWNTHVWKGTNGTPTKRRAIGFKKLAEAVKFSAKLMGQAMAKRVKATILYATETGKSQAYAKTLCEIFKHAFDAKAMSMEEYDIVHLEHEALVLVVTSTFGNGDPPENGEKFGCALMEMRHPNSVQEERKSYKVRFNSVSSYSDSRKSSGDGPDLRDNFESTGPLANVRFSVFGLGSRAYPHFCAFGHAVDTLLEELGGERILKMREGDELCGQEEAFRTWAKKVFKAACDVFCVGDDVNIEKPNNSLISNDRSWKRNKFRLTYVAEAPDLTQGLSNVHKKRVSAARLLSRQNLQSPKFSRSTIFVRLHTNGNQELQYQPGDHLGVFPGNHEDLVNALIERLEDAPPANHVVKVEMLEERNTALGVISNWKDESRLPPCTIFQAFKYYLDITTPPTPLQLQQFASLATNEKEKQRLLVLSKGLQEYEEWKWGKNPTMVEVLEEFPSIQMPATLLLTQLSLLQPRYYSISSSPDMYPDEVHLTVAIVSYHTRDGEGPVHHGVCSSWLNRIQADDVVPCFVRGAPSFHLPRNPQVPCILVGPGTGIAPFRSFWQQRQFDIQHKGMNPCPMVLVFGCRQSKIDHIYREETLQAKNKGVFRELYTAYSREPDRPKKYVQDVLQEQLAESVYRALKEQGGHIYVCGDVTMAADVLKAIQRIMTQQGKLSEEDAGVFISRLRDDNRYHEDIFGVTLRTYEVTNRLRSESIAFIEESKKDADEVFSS
Sequence of 5-hydroxytryptamine receptor 4 (O70528 whole entry): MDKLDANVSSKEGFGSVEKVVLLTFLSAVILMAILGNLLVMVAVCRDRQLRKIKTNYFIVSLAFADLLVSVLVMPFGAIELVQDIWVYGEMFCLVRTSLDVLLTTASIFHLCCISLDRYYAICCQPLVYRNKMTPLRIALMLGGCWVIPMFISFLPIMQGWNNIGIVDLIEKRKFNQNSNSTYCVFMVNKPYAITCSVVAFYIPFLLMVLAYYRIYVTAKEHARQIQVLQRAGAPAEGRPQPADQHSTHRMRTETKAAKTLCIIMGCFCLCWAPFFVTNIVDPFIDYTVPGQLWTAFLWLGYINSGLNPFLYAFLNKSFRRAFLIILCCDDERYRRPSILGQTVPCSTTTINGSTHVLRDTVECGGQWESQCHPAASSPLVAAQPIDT

Structure (SMILES)	IC50 [1]	IC50 [2]	IC50 [3]	IC50 [4]	Ki [4]	IC50 [5]	IC50 [6]	Ki [6]	IC50 [7]	Ki [7]	pIC50 ([7]; read-out: IC50)	pKi ([7]; read-out: Ki)	pIC50 [5]	pKi [5]
CC1=C(C(=O)O)N2C(=O)[C@@H](NC(=O)[C@H](N)c3ccccc3)[C@H]2SC1 [CEPHALEXIN ANHYDROUS]	Not Active	Not Active	Not Active	Not Active	Not Active	Not Active	Not Active	Not Active	Not Active	Not Active				
O=C(N[C@H](CO)[C@H](O)c1ccc([N+](=O)[O-])cc1)C(Cl)Cl [CHLORAMPHENICOL]	Not Active	Not Active	Not Active	Not Active	Not Active	Not Active	Not Active	Not Active	Not Active	Not Active				
ClC(Cl)Cl [CHLOROFORM]	Not Active	Not Active	Not Active	Not Active	Not Active	Not Active	Not Active	Not Active	Not Active	Not Active				
C=C1CC[C@H](O)C/C1=C/C=C1\CCC[C@]2(C)[C@@H]([C@H](C)CCCC(C)C)CC[C@@H]12 [CHOLECALCIFEROL]	Not Active	Not Active	Not Active	Not Active	Not Active	Not Active	Not Active	Not Active	Not Active	Not Active				
C[N+](C)(C)CCO.[Cl-] [CHOLINE CHLORIDE]	Not Active	Not Active	Not Active	Not Active	Not Active	Not Active	Not Active	Not Active	Not Active	Not Active				
CCOC(=O)C(C)(C)Oc1ccc(Cl)cc1 [CLOFIBRATE]	Not Active	Not Active	Not Active	Not Active	Not Active	Not Active	Not Active	Not Active	Not Active	Not Active				
CC(=O)OCC(=O)[C@@]1(O)CC[C@H]2[C@@H]3CCC4=CC(=O)CC[C@]4(C)[C@H]3C(=O)C[C@@]21C [CORTISONE ACETATE]	Not Active	Not Active	Not Active	Not Active	Not Active	Not Active	Not Active	Not Active	Not Active	Not Active				
O=c1ccc2ccccc2o1 [COUMARIN]	Not Active	Not Active	Not Active	Not Active	Not Active	Not Active	Not Active	Not Active	Not Active	Not Active				
C[C@@H]1C[C@@H]([C@H](O)CC2CC(=O)NC(=O)C2)C(=O)[C@@H](C)C1 [CYCLOHEXIMIDE]	Not Active	Not Active	Not Active	Not Active	Not Active	Not Active	Not Active	Not Active	Not Active	Not Active				
C/C=C/C[C@@H](C)[C@@H](O)[C@H]1C(=O)N[C@@H](CC)C(=O)N(C)CC(=O)N(C)[C@@H](CC(C)C)C(=O)N[C@@H](C(C)C)C(=O)N(C)[C@@H](CC(C)C)C(=O)N[C@@H](C)C(=O)N[C@H](C)C(=O)N(C)[C@@H](CC(C)C)C(=O)N(C)[C@@H](CC(C)C)C(=O)N(C)[C@@H](C(C)C)C(=O)N1C [CYCLOSPORINE]	Not Active	Not Active	Not Active	Not Active	Not Active	Not Active	Not Active	Not Active	Not Active	Not Active				
CN(C)/N=N/c1[nH]cnc1C(N)=O [DACARBAZINE]	Not Active	Not Active	Not Active	Not Active	Not Active	Not Active	Not Active	Not Active	Not Active	Not Active				
COc1ccc2c(c1)[C@]13CCCC[C@@H]1[C@H](C2)N(C)CC3 [DEXTROMETHORPHAN]	Not Active	Not Active	Not Active	Not Active	Not Active	Not Active	Not Active	Not Active			5.62	5.79		
CC(=O)Nc1c(I)c(NC(C)=O)c(I)c(C(=O)O)c1I [DIATRIZOIC ACID]	Not Active	Not Active	Not Active	Not Active	Not Active	Not Active	Not Active	Not Active	Not Active	Not Active				
COP(=O)(OC)OC=C(Cl)Cl [DICHLORVOS]	Not Active	Not Active	Not Active	Not Active	Not Active	Not Active	Not Active	Not Active	Not Active	Not Active				
O=C(O)Cc1ccccc1Nc1c(Cl)cccc1Cl [DICLOFENAC]	Not Active	Not Active	Not Active	Not Active	Not Active	Not Active	Not Active	Not Active	Not Active	Not Active				
C[C@H]1O[C@@H](O[C@H]2[C@@H](O)C[C@H](O[C@H]3[C@@H](O)C[C@H](O[C@H]4CC[C@@]5(C)[C@H](CC[C@@H]6[C@@H]5CC[C@]5(C)[C@@H](C7=CC(=O)OC7)CC[C@]65O)C4)O[C@@H]3C)O[C@@H]2C)C[C@H](O)[C@@H]1O [DIGITOXIN]	Not Active	Not Active	Not Active	Not Active	Not Active	Not Active	Not Active	Not Active	Not Active	Not Active				
CCN1CC(CCN2CCOCC2)C(c2ccccc2)(c2ccccc2)C1=O (configuration not stated) [DOXAPRAM]	Not Active	Not Active	Not Active	Not Active	Not Active	Not Active	Not Active	Not Active	Not Active	Not Active				
Cn1c(=O)c2c(ncn2CC2OCCO2)n(C)c1=O [DOXOFYLLINE]	Not Active	Not Active	Not Active	Not Active	Not Active	Not Active	Not Active	Not Active	Not Active	Not Active				
COc1cccc2c1C(=O)c1c(O)c3c(c(O)c1C2=O)C[C@@](O)(C(=O)CO)C[C@@H]3O[C@H]1C[C@H](N)[C@H](O)[C@H](C)O1 [DOXORUBICIN]	Not Active	Not Active	Not Active	Not Active	Not Active		Not Active	Not Active	Not Active	Not Active			4.90	5.68
COc1cccc2c1C(=O)c1c(O)c3c(c(O)c1C2=O)C[C@@](O)(C(=O)CO)C[C@@H]3O[C@H]1C[C@H](N)[C@@H](O)[C@H](C)O1 [EPIRUBICIN]	Not Active	Not Active	Not Active	Not Active	Not Active		Not Active	Not Active	Not Active	Not Active			5.10	5.88
C[C@]12CC[C@@H]3c4ccc(OC(=O)c5ccccc5)cc4CC[C@H]3[C@@H]1CC[C@@H]2O [ESTRADIOL BENZOATE]	Not Active	Not Active	Not Active	Not Active	Not Active	Not Active	Not Active	Not Active	Not Active	Not Active				
C[C@]12CC[C@@H]3c4ccc(O)cc4CC[C@H]3[C@@H]1CC[C@@H]2O [ESTRADIOL]	Not Active	Not Active	Not Active	Not Active	Not Active	Not Active	Not Active	Not Active	Not Active	Not Active				
CC[C@@H](CO)NCCN[C@@H](CC)CO [ETHAMBUTOL]	Not Active	Not Active	Not Active	Not Active	Not Active	Not Active	Not Active	Not Active	Not Active	Not Active				
CC1(C)O[C@@H]2C[C@H]3[C@@H]4C[C@H](F)C5=CC(=O)C=C[C@]5(C)[C@H]4[C@@H](O)C[C@]3(C)[C@]2(C(=O)CO)O1 [FLUNISOLIDE]	Not Active	Not Active	Not Active	Not Active	Not Active	Not Active	Not Active	Not Active	Not Active	Not Active				
